Source: a melting point compilation (Tetko et al.; mined from patent text by program, amines drawn as free bases though some values may be those of a salt)

Structure (SMILES) | melting point [°C]
COC(=O)c1ccc2cc(-c3ccc(C(=O)O)c(C45CC6CC(CC(C6)C4)C5)c3)ccc2c1 | 239 to 240
Cc1ccc2c(=O)cc(CS(C)=O)oc2c1C (configuration not stated) | 205 to 209
N=c1cc(NCCCCc2c[nH]cn2)ccs1 | 209 to 211
CN(C)CCOc1ccc(C#N)cn1 | 58
CCOC(=O)c1c(-c2cnccn2)ssc1=S | 125
O=C1NCCC[C@@H]1NS(=O)(=O)c1ccc(C(F)(F)F)cc1 | 181 to 183
CC(=O)N(CC1CC(c2ccc(Cl)cc2)=NO1)c1nnc(C)s1 (configuration not stated) | 195 to 197
N=C1CN(c2ccccc2)C(=N)O1 | 117 to 119
O=C1CC(C(=O)O)(c2ccc(F)cc2)c2ccccc21 (configuration not stated) | 106 to 108
O=C1N=NN=C2N=CN=C12 | 230 to 234
COc1ccc(N(C(=O)CN2C(=O)C(Cc3nn(Cc4ccccc4)c4c3CCCC4)C(=O)N(c3ccccc3)c3ccccc32)C(C)C)cc1 (configuration not stated) | 173 to 176
COc1cc(OC)cc(C2CC=CCC2=O)c1 (configuration not stated) | 60 to 62
C[C@H](CC(=O)c1ccc(C#N)cc1)C(=O)N1CCC(OCC(=O)OC(C)(C)C)CC1 | 142
COc1cc2c(cc1Nc1ncc(Cl)c(Nc3cccnc3OC)n1)CCN(CC(=O)N(C)C)CC2 | 68 to 76
CON=C(c1ccccc1)c1ccc2c(c1)C(C)(C)CCN2CCOc1ccc(CC(OCC(F)(F)F)C(=O)O)cc1 (configuration not stated) | 62 to 64
O=[N+]([O-])c1ccc(Oc2ccc(O)cc2)cc1 | 173 to 174
CCOC=Nc1nc(-c2ccc(C3CCCCC3)cc2)cs1 | 84 to 85
COC(=O)c1ccc2c(c1)S(=O)(=O)c1ccccc1N=C2N1CCOCC1 | 164 to 166
COC(=O)C(=CN(C)C)c1sc(Cl)nc1COc1ccccc1 | 114
[O-][N+](=CC=Cc1ccccc1)c1ccccc1 | 150 to 152
N=C(N)N1CC(c2ccccc2)C(c2ccc(Cl)cc2)=N1 (configuration not stated) | 187 to 189
Cc1cn2c(nc1=O)CCC2 | 82
O=C(O)c1ccc(N2CCN(c3ccncc3)CC2)cc1 | > 300
Nc1cc(-c2ccc(C(F)(F)F)cc2)no1 | 142 to 144
O=C1NC(=O)C(=Cc2ccc(-c3cc(C4CCCCC4)c4oc(C(Cl)(Cl)Cl)nc4c3)nc2)S1 | 253

Structure (SMILES) | melting point [°C]
CC(C)(c1ccccc1)C(n1ccnc1)S(=O)c1ccc(Cl)cc1 (configuration not stated) | 125 to 127
CCCCCSc1cccc(-c2nc(=O)c3ccccc3s2)n1 | 105
O=C(NC1CCCCC1)NS(=O)(=O)c1ccc2c(c1)CCN(C(=O)N1CCCCCC1)CC2 | 155 to 156
COc1cccc(-n2c(-c3sc(NC(=O)c4ccccc4)nc3-c3ccccc3)nc3ccccc3c2=O)c1 | 195 to 196
CC(=CN(C)C)C(=O)c1ccc(Cl)cc1 | 45 to 47
COC(=O)CC(CC(=O)OC)Sc1cc(OC)ccc1[N+](=O)[O-] | 91
O=CC(=O)c1ccc2c(c1)CCC2 | 100 to 112
CC(C)(C)OC(=O)NCCCCn1c(=O)c2cccc3ncc(c1=O)n32 | 118 to 119
Cc1cc(CCCOc2c(C)cc(-c3noc(CC(F)(F)F)n3)cc2C)on1 | 84 to 85
COc1ccc(Cc2nc3c(c(OC)nn3C(C)CCCc3ccccc3)c(=O)[nH]2)cc1OC (configuration not stated) | 148
O=C1C(c2cc3c(cc2O)OCCO3)c2ccccc2N1C(c1ccccc1)c1ccccc1 (configuration not stated) | 157 to 160
COc1nc(C)cnc1NS(=O)(=O)c1ccccc1I | 136 to 138
CCCCNC(=O)CP(=O)(O)O | 115 to 125
CC(=O)N1CCN(Cc2sccc2S(=O)(=O)N(C)c2cccc3cc(-c4nccs4)[nH]c23)CC1 | 242
COc1cc2nc(SCc3nccc(N(C)C)c3Cl)[nH]c2cc1OC | 121 to 122
COc1ccc(-c2ccc(N)nn2)cc1OC(C)C | 184
Nc1ccc(CCc2ccc(OCc3ccccc3)c(OCc3ccccc3)c2)cc1 | 97 to 101
NC(=O)c1ccc(-c2ccc(-c3ccn(C(CC(=O)OCc4ccccc4)C(=O)NC(CO)Cc4ccccc4)c3)cc2)cc1 (configuration not stated) | 192 to 194
Cc1nc(-n2ccc(COc3ccccc3)cc2=O)sc1C(=O)NCc1ccccc1 | 175 to 177
Nc1cccc2c1C1CCCCN1C2=O (configuration not stated) | 183
C(=Cc1ccc(N(c2ccccc2)c2ccccc2)cc1)c1ccc(N(c2ccccc2)c2ccccc2)cc1 | 247 to 259
CC(C)c1csc(/C=C/c2cccc(NC(=O)Cc3ccccc3C(=O)O)c2)n1 | 203 to 204
Cc1ccc(COC(=O)CCC2CCC(=O)N2)cc1 (configuration not stated) | 71 to 72
CCCCNC(=O)Oc1ccc(Oc2ccccc2)cc1C(=O)OC | 53 to 56

Further lines, results first:

melting point [°C] | Structure (SMILES)
233 to 235 | O=C(Cc1ccc(Cl)c([N+](=O)[O-])c1)N[C@H]1C[C@H](C(=O)O)Nc2cc(Cl)cc(Cl)c21 (relative stereo)
290 to 294 | COc1ccccc1C1=Nc2ccc(C(=O)O)cc2C(=O)C1
224 to 226 | CC(=O)NC(Cc1ccc(OCCc2nc(-c3ccccc3)oc2C)cc1)C(N)=O (configuration not stated)
139 to 141 | O=c1[nH]c(=O)n(CCCCBr)c2ncccc12
194 to 196 | COc1ccc(C(=O)Nc2ccccc2)cc1NC(=S)Nc1ccc(C(F)(F)F)cc1
243 to 247 | N#Cc1ccc(-c2ccc(S(=O)(=O)CC(CSc3ccccc3)C(=O)O)cc2)cc1 (configuration not stated)
227 to 228 | Nc1ccc2c(ccn2O)n1
116 to 117 | Cc1cc(CCCOc2c(C)cc(N3COC(CO)=N3)cc2C)on1
114 to 115 | CCOC(=O)CCCNC(=O)c1nn(C2CCCCO2)cc1NC(=O)c1ccccn1 (configuration not stated)
125 | O=P(Cc1ccc(O)cc1)(c1ccccc1)c1ccccc1
177 to 179 | C=CCONC(=O)c1nc(-c2ccc(C)cc2)cc(N)c1Cl
193 to 194 | O=C(NC(=S)Nc1nc(-c2ccc3c(c2)CCCC3)cs1)c1ccc(Cl)cc1
91 to 96 | O=S(=O)(Cl)C=Cc1ccc(Cl)c(Cl)c1
118 | CN(C(=O)c1nn(-c2ccc(Cl)cc2Cl)c(-c2ccc(Cl)cc2)c1O)N1CCCCC1
125 to 127 | Cc1nccn1CCNC(=O)c1cccc2oc(-c3ccccc3)nc12
140 to 145 | CC12CCC3c4ccc(O)cc4CC(Sc4ccc(O)cc4)C3C1CCC2O (configuration not stated)
142 to 143 | Cc1cccc2sc(-n3nc(CCC(=O)N(C)O)cc3-c3ccsc3)nc12
117 to 119 | CCc1cccc(C)c1CNc1cc(Br)cc2c1nc(C)n2COCc1ccccc1
94.5 to 96.2 | O=C(Nc1ccc(Cl)cc1)c1ccccc1F
257 to 258 | Cn1nccc1-c1ccc(-c2cnc3[nH]cc(C(=O)C(C)(C)C)c3n2)cc1
130 to 131 | CCOC(=O)c1c(CN(CC)CC)nc2cc(OC)c(OC)cc2c1-c1ccc(OC)c(OC)c1
174 to 175 | CN1CCNC(C(=O)Cn2c(-c3cc(Cl)ccn3)nc3cccnc32)C1 (configuration not stated)
258 to 260 | O=c1[nH]nc2n1C=Cc1ccccc1C2c1ccccc1 (configuration not stated)
